Source: patent US7205320B2, “Phosphodiesterase 4 inhibitors” (Memory Pharmaceuticals Corp., priority 2001, dated 2007)

Key:
rats [1] = assay: Passive avoidance in rats, in vivo test for learning and memory (MK-801 amnesia); design: species or system rat; details: MK-801 0.1 mg/kg pretreatment, 24 hours after shock, p<0.001
Method: Passive Avoidance in Rats, an In vivo Test for Learning and Memory
The test was performed as previously described (Zhang, H.-T., Crissman, A. M., Dorairaj, N. R., Chandler, L. J., and O'Donnell, J. M., Neuropsychopharmacology, 2000, 23, 198–204.). The apparatus (Model E10-16SC, Coulbourn Instruments, Allentown, Pa.) consisted of a two-compartment chamber with an illuminated compartment connected to a darkened compartment by a guillotine door. The floor of the darkened compartment consisted of stainless steel rods through which an electric foot-shock could be delivered from a constant current source. All experimental groups were first habituated to the apparatus the day before the start of the experiment. During the training, the rat (Male Spraque-Dawley (Harlan) weighing 250 to 350 g) was placed in the illuminated compartment facing away from the closed guillotine door for 1 minute before the door was raised. The latency for entering the darkened compartment was recorded. After the rat entered the darkened compartment, the door was closed and a 0.5 mA electric shock was administered for 3 seconds. […] The latency for entering the darkened compartment was recorded for up to 180 seconds, at which time the trial was terminated.
(§1) All data were analyzed by analyses of variance (ANOVA); individual comparisons were made using Kewman-Keuls tests. […]

rats [2] = assay: Radial arm maze task in rats, in vivo test for learning and memory (MK-801 amnesia); design: species or system rat; details: MK-801 0.1 mg/kg, i.p., p<0.01
Method: Radial Arm Maze Task in Rats, an In vivo Test for Learning and Memory
The test was performed as previously described (Zhang, H.-T., Crissman, A. M., Dorairaj, N. R., Chandler, L. J., and O'Donnell, J. M., Neuropsychopharmacalogy, 2000, 23, 198–204.). Five days after initial housing, rats (male Spraque-Dawley (Harlan) weighing 250 to 350 g) were placed in the eight-arm radial maze (each arm was 60×10×12 cm high; the maze was elevated 70 cm above the floor) for acclimation for two days. Rats were then placed individually in the center of the maze for 5 minutes with food pellets placed close to the food wells, and then, the next day, in the wells at the end of the arms; 2 sessions a day were conducted. Next, four randomly selected arms were then baited with one pellet of food each. […] Four parameters were recorded: […]) working memory errors, i.e., entries into baited arms that had already been visited during the same trial; 2) reference memory errors, i.e., entries into unbaited arms; 3) total arm entries; and 4) the test duration (seconds), i.e., the time spent in the collection of all the pellets in the maze. […]
as §1

C[C@]12N[C@H](Cc3ccccc31)c1ccccc12 [MK-801]
Latency for entering the darkened compartment compared to the vehicle (rats [1]): markedly reduced
Frequencies of working and reference memory errors compared to control (rats [2]): increased
